In brackets after ≈: the same amount, converted by molar mass. Activity calls are given as the source filed them. The calls are words filed in the database; no cut-off is given here.
Key:
Type in all cases: functional
[1] = tested on: HEPA 59T/VGH; experiment: (§1) Cytotoxicity against human HEPA 59T/VGH cells by MTT assay
[2] = tested on: KB; experiment: Cytotoxicity against human KB cells by MTT assay
[3] = as §1; conditions: read-out: ED50 (the source's name)

Compound | Activity [1] | Activity [2] | EC50 [3] | EC50 ([2]; read-out: ED50 (the source's name))
C=C(C)[C@@H]1CC(=O)C[C@H](O)[C@@]2(O)[C@H]1C=C1C(=O)O[C@@H]3C[C@](C)(O)[C@H]2[C@H]13 | inactive | inactive | – | –
C=C(C)[C@H]1C/C=C2\C(=O)O[C@H](C[C@]3(C)CC(=O)[C@H](CC(=O)C1)O3)[C@H]2O [SCABROLIDE E] | – | – | 0.5 mg/L (≈ 1.44 µM) | 0.7 mg/L (≈ 2.01 µM)

Reference: ChEMBL document CHEMBL1148980, “Scabrolides E-G, three new norditerpenoids from the soft coral Sinularia scabra” (2004)
